Source: the supplement of paper PMC10307832

How the values were obtained:
Assay in all cases: relative viability (nuclei count vs DMSO), 5 days (fraction); higher = more cells survive
[1] = system: 201T
Method in brief: (§1)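 Medians of duplicate plates are given as relative viability. That measure is the nuclei count in treated wells divided by the count in vehicle wells. Counts were taken on 4× images of lung cancer cell lines in 1536-well plates, 5 days after pin-tool dosing the day after seeding with one drug alone or a fixed anchor-drug dose plus five library-drug doses (not always all listed) in √10 steps.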

[2] = system: BEN
Method in brief: as §1

[3] = system: CAL-12T
Method in brief: as §1

[4] = system: HCC-827
Method in brief: as §1

[5] = system: HOP-62
Method in brief: as §1

[6] = system: LCLC-103H
Method in brief: as §1

[7] = system: LCLC-97TM1
Method in brief: as §1

[8] = system: LXF-289
Method in brief: as §1

[9] = system: NCI-H1355
Method in brief: as §1

[10] = system: NCI-H1395
Method in brief: as §1

[11] = system: NCI-H1437
Method in brief: as §1

[12] = system: NCI-H1650
Method in brief: as §1

[13] = system: NCI-H1793
Method in brief: as §1

[14] = system: NCI-H2023
Method in brief: as §1

[15] = system: NCI-H2087
Method in brief: as §1

[16] = system: NCI-H2228
Method in brief: as §1

[17] = system: NCI-H2405
Method in brief: as §1

[18] = system: NCI-H3122
Method in brief: as §1

[19] = system: NCI-H322M
Method in brief: as §1

[20] = system: NCI-H647
Method in brief: as §1

[21] = system: NCI-H727
Method in brief: as §1

[22] = system: RERF-LC-KJ
Method in brief: as §1

[23] = system: SK-LU-1
Method in brief: as §1

COc1cc(N2CCC(C(N)=O)CC2)ccc1Nc1nc(N)c(Cl)c(Nc2ccccc2S(=O)(=O)C(C)C)n1 [HG-5-88-01] + Cc1nc(Nc2ncc(C(=O)Nc3c(C)cccc3Cl)s2)cc(N2CCN(CCO)CC2)n1 [Dasatinib] (partner 0.075 µM)
relative viability ([1]; first compound 0.04 µM): 0.616
relative viability ([1]; first compound 0.1265 µM): 0.56
relative viability ([1]; first compound 0.4 µM): 0.545
relative viability ([1]; first compound 1.265 µM): 0.512
relative viability ([1]; first compound 4 µM): 0.267
relative viability ([2]; first compound 0.04 µM): 0.227
relative viability ([2]; first compound 0.1265 µM): 0.337
relative viability ([2]; first compound 0.4 µM): 0.291
relative viability ([2]; first compound 1.265 µM): 0.319
relative viability ([2]; first compound 4 µM): 0.26
relative viability ([3]; first compound 0.04 µM): 0.382
relative viability ([3]; first compound 0.1265 µM): 0.36
relative viability ([3]; first compound 0.4 µM): 0.154
relative viability ([3]; first compound 1.265 µM): 0.0794
relative viability ([3]; first compound 4 µM): 0.0951
relative viability ([4]; first compound 0.04 µM): 0.279
relative viability ([4]; first compound 0.1265 µM): 0.271
relative viability ([4]; first compound 0.4 µM): 0.235
relative viability ([4]; first compound 1.265 µM): 0.101
relative viability ([4]; first compound 4 µM): 0.118
relative viability ([5]; first compound 0.04 µM): 0.682
relative viability ([5]; first compound 0.1265 µM): 0.606
relative viability ([5]; first compound 0.4 µM): 0.487
relative viability ([5]; first compound 1.265 µM): 0.444
relative viability ([5]; first compound 4 µM): 0.253
relative viability ([6]; first compound 0.04 µM): 0.522
relative viability ([6]; first compound 0.1265 µM): 0.464
relative viability ([6]; first compound 0.4 µM): 0.418
relative viability ([6]; first compound 1.265 µM): 0.373
relative viability ([6]; first compound 4 µM): 0.341
relative viability ([7]; first compound 0.04 µM): 0.753
relative viability ([7]; first compound 0.1265 µM): 0.956
relative viability ([7]; first compound 0.4 µM): 0.481
relative viability ([7]; first compound 1.265 µM): 0.714
relative viability ([7]; first compound 4 µM): 0.477
relative viability ([8]; first compound 0.04 µM): 0.252
relative viability ([8]; first compound 0.1265 µM): 0.198
relative viability ([8]; first compound 0.4 µM): 0.116
relative viability ([8]; first compound 1.265 µM): 0.132
relative viability ([8]; first compound 4 µM): 0.11
relative viability ([9]; first compound 0.04 µM): 0.675
relative viability ([9]; first compound 0.1265 µM): 0.77
relative viability ([9]; first compound 0.4 µM): 0.597
relative viability ([9]; first compound 1.265 µM): 0.574
relative viability ([9]; first compound 4 µM): 0.388
relative viability ([10]; first compound 0.04 µM): 0.416
relative viability ([10]; first compound 0.1265 µM): 0.371
relative viability ([10]; first compound 0.4 µM): 0.393
relative viability ([10]; first compound 1.265 µM): 0.394
relative viability ([10]; first compound 4 µM): 0.36
relative viability ([11]; first compound 0.04 µM): 0.411
relative viability ([11]; first compound 0.1265 µM): 0.306
relative viability ([11]; first compound 0.4 µM): 0.231
relative viability ([11]; first compound 1.265 µM): 0.234
relative viability ([11]; first compound 4 µM): 0.267
relative viability ([12]; first compound 0.04 µM): 0.324
relative viability ([12]; first compound 0.1265 µM): 0.327
relative viability ([12]; first compound 0.4 µM): 0.278
relative viability ([12]; first compound 1.265 µM): 0.232
relative viability ([12]; first compound 4 µM): 0.221
relative viability ([13]; first compound 0.1265 µM): 0.617
relative viability ([13]; first compound 0.4 µM): 0.355
relative viability ([13]; first compound 4 µM): 0.336
relative viability ([14]; first compound 0.04 µM): 0.646
relative viability ([14]; first compound 0.1265 µM): 0.515
relative viability ([14]; first compound 0.4 µM): 0.318
relative viability ([14]; first compound 1.265 µM): 0.196
relative viability ([14]; first compound 4 µM): 0.207
relative viability ([15]; first compound 0.04 µM): 0.826
relative viability ([15]; first compound 0.1265 µM): 0.787
relative viability ([15]; first compound 0.4 µM): 0.601
relative viability ([15]; first compound 1.265 µM): 0.389
relative viability ([15]; first compound 4 µM): 0.167
relative viability ([16]; first compound 0.04 µM): 0.106
relative viability ([16]; first compound 0.1265 µM): 0.0974
relative viability ([16]; first compound 0.4 µM): 0.0904
relative viability ([16]; first compound 1.265 µM): 0.101
relative viability ([16]; first compound 4 µM): 0.0733
relative viability ([17]; first compound 0.04 µM): 0.207
relative viability ([17]; first compound 0.1265 µM): 0.179
relative viability ([17]; first compound 0.4 µM): 0.155
relative viability ([17]; first compound 1.265 µM): 0.197
relative viability ([17]; first compound 4 µM): 0.153
relative viability ([18]; first compound 0.04 µM): 0.542
relative viability ([18]; first compound 0.1265 µM): 0.209
relative viability ([18]; first compound 0.4 µM): 0.149
relative viability ([18]; first compound 1.265 µM): 0.161
relative viability ([18]; first compound 4 µM): 0.109
relative viability ([19]; first compound 0.04 µM): 0.247
relative viability ([19]; first compound 0.1265 µM): 0.194
relative viability ([19]; first compound 0.4 µM): 0.189
relative viability ([19]; first compound 4 µM): 0.216
relative viability ([20]; first compound 0.04 µM): 0.162
relative viability ([20]; first compound 0.1265 µM): 0.216
relative viability ([20]; first compound 0.4 µM): 0.114
relative viability ([20]; first compound 1.265 µM): 0.0855
relative viability ([20]; first compound 4 µM): 0.112
relative viability ([21]; first compound 0.04 µM): 0.335
relative viability ([21]; first compound 0.1265 µM): 0.334
relative viability ([21]; first compound 0.4 µM): 0.282
relative viability ([21]; first compound 1.265 µM): 0.173
relative viability ([21]; first compound 4 µM): 0.217
relative viability ([22]; first compound 0.04 µM): 0.804
relative viability ([22]; first compound 0.1265 µM): 0.81
relative viability ([22]; first compound 0.4 µM): 0.671
relative viability ([22]; first compound 1.265 µM): 0.465
relative viability ([22]; first compound 4 µM): 0.41
relative viability ([23]; first compound 0.04 µM): 0.178
relative viability ([23]; first compound 0.1265 µM): 0.182
relative viability ([23]; first compound 0.4 µM): 0.106
relative viability ([23]; first compound 1.265 µM): 0.123
relative viability ([23]; first compound 4 µM): 0.0874
